Laboratory results reported in US8399462B2, “JNK modulators” (Roche Palo Alto LLC, priority 2006, dated 2013).

Key:
Human JNK1α1 = Human JNK1α1 (Homo sapiens, UniProt P45983); experiment: JNK assay in vitro (phosphorylation of GST-ATF2 with [γ-33P]ATP), JNK1; type: biochemical
Experimental: (§1) JNK activity was measured by phosphorylation of GST-ATF2 (19-96) with [γ-^33P] ATP. […] Human JNK2α2 assay contains 1 nM enzyme, 1 μM ATF2, 8 μM ATP with 1 μCi [γ-^33P] ATP. Human JNK1α1 assay contains 2 nM enzyme, 1 μM ATF2, 6 μM ATP with 1 μCi [γ-^33P] ATP. Human JNK3 (Upstate Biotech #14-501M) assay contains 2 nM enzyme, 1 μM ATF2, 4 μM ATP with 1 μCi [γ-33P] ATP. The enzyme assay was carried out in the presence or absence of several compound concentrations. JNK and compound were pre-incubated for 10 min., followed by initiation of the enzymatic reaction by adding ATP and the substrate. The reaction mixture was incubated at 30° C. for 30 min. At the end of incubation, the reaction was terminated by transferring 25 μl of the reaction mixture to 150 μl of 10% glutathione Sepharose® slurry (Amersham # 27-4574-01) containing 135 mM EDTA. The reaction product was captured on the affinity resin, and washed on a filtration plate (Millipore, MABVNOB50) with phosphate buffered saline for six times to remove free radionucleotide. The incorporation of ^33P into ATF2 was quantified on a microplate scintillation counter (Packard Topcount). Compound inhibition potency on JNK was measured by IC50 value generated from ten concentration inhibition curves fitted into the 3-parameter model: % inhibition=Maximum/(I+(IC50/[Inhibitor])^slope). Data were analyzed on Microsoft Excel for parameter estimation.

Human JNK2α2 = Human JNK2α2 (Homo sapiens, UniProt P45984); experiment: JNK assay in vitro (phosphorylation of GST-ATF2 with [γ-33P]ATP), JNK2; type: biochemical
Experimental: as §1

c-jun = c-jun of Table 2 (method not described); type: cell-based
[1] = tested on: TNFα-induced IL-6 production; experiment: Rat in vivo TNFα-induced IL-6 production assay; conditions: 1.5 h, oral gavage, dose 10 mg/Kg, 30 min before TNF-α i.p., blood 90 min after challenge
Experimental: Female Wistar-Han rats procured from Charles River Laboratories were allowed to acclimate for one week prior to use and achieve an approximate body weight of 95-130 g. Rats were administered test compound via oral gavage 30 min prior to an intraperitoneal challenge of 0.5 μg recombinant rat TNF-α (Biosource). Blood was collected via cardiocentesis 90 min after TNF-α challenge. Plasma was prepared using lithium heparin separation tubes (BD microtainer) and frozen at −80° C. until analyzed. IL-6 levels were determined using a rat specific IL-6 ELISA kit (Biosource).

[2] = tested on: inflammatory cell infiltration into BAL; experiment: Ovalbumin-sensitized asthma model (inflammatory cell infiltration into BAL); type: in vivo, rat
Experimental: (A) Male Brown-Norway rats are sensitized i.p. with 100 μg of OA (ovalbumin) in 0.2 ml alum once every week for three weeks (day 0, 7, and 14). The week following the last sensitization, the rats are ready for testing. One to 2 days prior to challenge, animals are weighed. On day 21, the rats are dosed q.d. with either vehicle or compound formulation subcutaneously 30 minutes before OA aerosol challenge (1% OA for 45 minutes) and terminated 4 or 24 hours after challenge. At time of sacrifice, rats are anesthetized (urethane, approx. 2 g/kg, i.p.). Plasma is collected from rats for PK at termination. Blood is drawn from the abdominal aorta at termination. A tracheal cannula is inserted and the lungs are lavaged with 3×3 ml PBS. The BAL fluid is analyzed for total leukocyte number and differential leukocyte counts. Total leukocyte number in an aliquot of the cells (20-100 μl) is determined using a Coulter Counter. For differential leukocyte counts, 50-200 μl of the sample is centrifuged in a Cytospin and the slide stained with Diff-Quik. The proportions of monocytes, eosinophils, neutrophils and lymphocytes are counted under light microscopy using standard morphological criteria and expressed as a percentage. The remaining BAL fluid is centrifuged (1500 rpm, 10 min) and the supernatant is stored at −80° C. Lungs are also harvested for protein and/or RNA analyses.

[3] = tested on: inflammatory cell infiltration into BAL; experiment: as above; type: in vivo, rat; conditions: 30 mg/kg

Sequence of Human JNK1α1 (P45983 1-384 isoform P45983-2): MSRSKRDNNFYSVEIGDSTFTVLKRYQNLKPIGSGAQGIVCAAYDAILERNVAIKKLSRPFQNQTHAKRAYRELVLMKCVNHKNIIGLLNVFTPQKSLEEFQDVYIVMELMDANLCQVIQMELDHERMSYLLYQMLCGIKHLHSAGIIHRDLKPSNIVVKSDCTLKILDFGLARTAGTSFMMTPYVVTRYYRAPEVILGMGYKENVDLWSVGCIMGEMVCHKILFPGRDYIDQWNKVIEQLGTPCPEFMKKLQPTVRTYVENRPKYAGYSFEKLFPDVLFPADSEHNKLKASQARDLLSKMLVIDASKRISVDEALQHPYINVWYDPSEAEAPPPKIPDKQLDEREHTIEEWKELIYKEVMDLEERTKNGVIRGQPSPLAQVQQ
Sequence of Human JNK2α2 (P45984 whole entry): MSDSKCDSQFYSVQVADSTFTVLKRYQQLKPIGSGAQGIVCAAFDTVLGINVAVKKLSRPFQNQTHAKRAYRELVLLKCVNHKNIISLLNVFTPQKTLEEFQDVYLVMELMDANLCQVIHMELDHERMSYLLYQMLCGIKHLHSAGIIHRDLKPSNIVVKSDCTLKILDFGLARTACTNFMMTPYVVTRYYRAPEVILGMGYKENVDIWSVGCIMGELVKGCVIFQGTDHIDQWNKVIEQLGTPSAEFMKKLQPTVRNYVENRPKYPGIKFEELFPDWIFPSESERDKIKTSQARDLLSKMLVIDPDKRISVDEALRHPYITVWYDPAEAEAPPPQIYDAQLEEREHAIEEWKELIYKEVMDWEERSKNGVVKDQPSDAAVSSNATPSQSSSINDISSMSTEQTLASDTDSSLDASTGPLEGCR

Compound: N#CCOc1cccc2c1cnn2-c1ccnc(N[C@H]2CC[C@H](O)CC2)n1 [Compound 87, (1-[2-(4-hydroxycyclo-hexylamino)-pyrimidin-4-yl]-1H-indazol-4-yl-oxy)acetonitrile]
- IC50 (Human JNK1α1): 29.7 nM
- IC50 (Human JNK2α2): 191 nM
- IC50 (c-jun): 1710 nM
- inhibition in vivo at 10 mg/kg [1]: 64%

Compound: CC(C)(O)[C@H]1CC[C@H](Nc2nccc(-n3ncc4c(OCCCS(C)(=O)=O)cccc43)n2)CC1 [Compound 157, 2-(4-{4-[4-(3-methane-sulfonyl-propoxy)-indazol-1-yl]-pyrimidin-2-ylamino}-cyclohexyl)-propan-2-ol]
- inhibition in vivo at 10 mg/kg [1]: 52.5%
- Eosinophils % inhibition ([2]; 10 mg/kg): 6.5%
- Eosinophils count in BAL ([2]; 10 mg/kg): 0.29 ± 0.09 × 10^5 per mL
- Neutrophils % inhibition ([2]; 10 mg/kg): 41.3%
- Neutrophils count in BAL ([2]; 10 mg/kg): 0.94 ± 0.10 × 10^5 per mL
- Total cells % inhibition ([2]; 10 mg/kg): 3.3%
- Total cells count in BAL ([2]; 10 mg/kg): 2.67 ± 0.13 × 10^5 per mL
- Total cells % inhibition ([2]; 30 mg/kg): 10.9%
- Eosinophils % inhibition [3]: 22.6%
- Eosinophils count in BAL [3]: 0.24 ± 0.05 × 10^5 per mL
- Neutrophils % inhibition [3]: 70.6%
- Neutrophils count in BAL [3]: 0.47 ± 0.12 × 10^5 per mL
- Total cells count in BAL [3]: 2.46 ± 0.18 × 10^5 per mL
